± gives the standard deviation of the averaged measurements.
Legend:
Assay in all cases: level (log10 ratio to DMSO vehicle control); higher = higher biomarker level / cell amount than vehicle control
Conditions in all cases: in DMSO
[1] = compound: CC(C)(C)C(=O)CC(=O)C(F)(F)C(F)(F)C(F)(F)F [(Heptafluorobutanoyl)pivaloylmethane]
Protocol: (§1)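 BioMAP Diversity Plus panel of 12 human primary cell co-culture systems (3C, 4H, LPS, SAg, BT, BF4T, BE3C, CASM3C, HDF3CGF, KF3CT, MyoF, Mphg). Compounds were added 1 h before stimulation and left for 24 h (MyoF 48 h; BT 72 h for soluble read-outs or 6 d for IgG). Biomarkers were read by ELISA, cytotoxicity by SRB, PBMC viability and proliferation by Alamar Blue. Each well value was divided by the mean of 8 DMSO control wells on the same plate and log10 transformed; duplicate blinded samples were tested at 4 concentrations.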

1-(Perfluorohexyl)octane = compound: CCCCCCCCC(F)(F)C(F)(F)C(F)(F)C(F)(F)C(F)(F)C(F)(F)F [1-(Perfluorohexyl)octane]
Protocol: as §1

[2] = compound: FC(F)(F)C(F)(F)C(F)(F)C(F)(F)C(F)(F)C(F)(F)C(F)(F)CCI [1-Iodo-1H,1H,2H,2H-perfluorononane]
Protocol: as §1

Perfluorooctanamidine = compound: N=C(N)C(F)(F)C(F)(F)C(F)(F)C(F)(F)C(F)(F)C(F)(F)C(F)(F)F [Perfluorooctanamidine]
Protocol: as §1

Perfluorooctanamide = compound: NC(=O)C(F)(F)C(F)(F)C(F)(F)C(F)(F)C(F)(F)C(F)(F)C(F)(F)F [Perfluorooctanamide]
Protocol: as §1

[3] = compound: O=P(O)(O)CCC(F)(F)C(F)(F)C(F)(F)C(F)(F)C(F)(F)C(F)(F)C(F)(F)C(F)(F)F [((Perfluorooctyl)ethyl)phosphonic acid]
Protocol: as §1

[4] = compound: O=S(=O)(O)C(F)(F)C(F)(F)C(F)(F)C(F)(F)F [Perfluorobutanesulfonic acid]
Protocol: as §1

Test System	level (log10) ([1]; 6700 nM)	level (log10) ([1]; 20000 nM)	level (log10) ([1]; 60000 nM)	level (log10) (1-(Perfluorohexyl)octane; 6700 nM)	level (log10) (1-(Perfluorohexyl)octane; 20000 nM)	level (log10) ([2]; 6700 nM)	level (log10) ([2]; 20000 nM)	level (log10) (Perfluorooctanamidine; 6700 nM)	level (log10) (Perfluorooctanamidine; 20000 nM)	level (log10) (Perfluorooctanamidine; 60000 nM)	level (log10) (Perfluorooctanamide; 6700 nM)	level (log10) (Perfluorooctanamide; 20000 nM)	level (log10) (Perfluorooctanamide; 60000 nM)	level (log10) ([3]; 6700 nM)	level (log10) ([3]; 20000 nM)	level (log10) ([3]; 60000 nM)	level (log10) ([4]; 6700 nM)	level (log10) ([4]; 20000 nM)	level (log10) ([4]; 60000 nM)
KF3CT:CCL2/MCP-1	0.0025 ± 0.005	0.035 ± 0.0085	0.0645 ± 0.013	0.0005 ± 0.023	0.036 ± 0.033	0.01 ± 0.03	0.0795 ± 0.07	-0.0075 ± 0.0064	0.029 ± 0.0099	0.092	-0.011 ± 0.017	-0.034 ± 0.031	-0.091 ± 0.0028	-0.0355 ± 0.0064	-0.0255 ± 0.0078	-0.038 ± 0.042	-0.032 ± 0.017	-0.0095 ± 0.026	0.0135 ± 0.083
KF3CT:CD54/ICAM-1	-0.0095 ± 0.011	-0.0265 ± 0.018	-0.021 ± 0.0042	0.0045 ± 0.033	-0.0065 ± 0.0035	-0.0045 ± 0.0092	-0.0175 ± 0.025	0.0055 ± 0.033	0.0175 ± 0.022	0.064	0.0015 ± 0.0078	0 ± 0.014	0.001	0.019 ± 0.034	0.013 ± 0.018	-0.0055 ± 0.049	0.0015 ± 0.029	0.0225 ± 0.012	0.0005 ± 0.00071
KF3CT:CXCL8/IL-8	-0.015 ± 0.011	-0.0165 ± 0.0078	0.016 ± 0.0014	0.009 ± 0.0085	0.021 ± 0.0057	0.013 ± 0.0071	0.0605 ± 0.0092	0.0135 ± 0.021	0.0305 ± 0.018	0.043	-0.005 ± 0.0014	-0.027 ± 0.018	-0.062 ± 0.0057	0.022 ± 0.0014	0.0245 ± 0.0078	0.032 ± 0.0028	-0.031 ± 0.02	-0.002 ± 0.0042	0.004 ± 0.0071
KF3CT:CXCL9/MIG	0.0025 ± 0.0035	-0.002 ± 0.0042	0.0055 ± 0.0021	0.0085 ± 0.013	0.001 ± 0.0057	0.0045 ± 0.00071	-0.01 ± 0.025	-0.0015 ± 0.011	-0.0005 ± 0.0092	0.015	0.0035 ± 0.039	0.0105 ± 0.016	0.018 ± 0.0042	-0.0095 ± 0.0078	0 ± 0.0071	-0.0225 ± 0.0092	0.0185 ± 0.029	0.021 ± 0.017	0.0345 ± 0.0078
KF3CT:CXCL10/IP-10	0.004 ± 0.0099	-0.006 ± 0.0028	0.007 ± 0.0014	-0.0055 ± 0.018	-0.011 ± 0.0099	-0.0065 ± 0.005	-0.0235 ± 0.0092	0.012 ± 0.042	0.0025 ± 0.04	0.04	0.0285 ± 0.036	0.0365 ± 0.037	0.0365 ± 0.016	0.0105 ± 0.028	0.023 ± 0.013	0.0205 ± 0.005	0.0305 ± 0.025	0.0385 ± 0.028	0.0405 ± 0.019
KF3CT:IL-1alpha	0.02 ± 0.021	0.015 ± 0.013	0.02 ± 0.023	-0.009 ± 0.04	0.0175 ± 0.0092	-0.01 ± 0.0071	0.019 ± 0.047	-0.005 ± 0.04	0.0115 ± 0.011	0.03	-0.0055 ± 0.011	0.0125 ± 0.0064	0.039 ± 0.03	0.0025 ± 0.019	0.0035 ± 0.011	0.0025 ± 0.029	-0.009 ± 0.0042	-0.0085 ± 0.0078	-0.006 ± 0.025
KF3CT:MMP-9	-0.018 ± 0.0099	-0.0175 ± 0.023	-0.014 ± 0.041	-0.006 ± 0.024	0.0075 ± 0.029	-0.006 ± 0.0042	0.0165 ± 0.013	-0.006 ± 0.0028	-0.0275 ± 0.023	-0.032	-0.011 ± 0.017	-0.0265 ± 0.0092	-0.0905 ± 0.0021	-0.0095 ± 0.0064	-0.027 ± 0.0042	-0.0365 ± 0.013	-0.0115 ± 0.0021	-0.008 ± 0.013	-0.0145 ± 0.005
KF3CT:PAI-I	-0.0065 ± 0.019	-0.0025 ± 0.016	0.004 ± 0.02	0.0165 ± 0.0078	0.026 ± 0.011	0.0115 ± 0.022	0.017 ± 0.021	-0.001 ± 0.033	-0.017 ± 0.044	-0.008	-0.004 ± 0.011	-0.0085 ± 0.011	0.0005 ± 0.0064	-0.037 ± 0.035	-0.055 ± 0.02	-0.0595 ± 0.03	-0.014 ± 0.048	0.003 ± 0.0099	-0.007 ± 0.027
KF3CT:SRB	-0.0055 ± 0.0021	-0.003 ± 0.0071	-0.0065 ± 0.005	-0.0025 ± 0.023	-0.0115 ± 0.015	0.0005 ± 0.005	0.005 ± 0.013	-0.001 ± 0.0014	-0.004 ± 0.0014	0.027	-0.0065 ± 0.005	-0.0075 ± 0.0035	0 ± 0.0028	0.0025 ± 0.0035	-0.001 ± 0.013	0.0085 ± 0.00071	0.002 ± 0.0042	0 ± 0.0014	0 ± 0.0014
KF3CT:TIMP-2	0.001 ± 0.021	0.002 ± 0.014	-0.015 ± 0.0014	0.004 ± 0.02	-0.016 ± 0.011	0.0145 ± 0.03	-0.0035 ± 0.0064	0.01 ± 0.0014	0 ± 0.02	0.035	-0.045 ± 0.0085	-0.0245 ± 0.04	-0.033 ± 0.011	0.0015 ± 0.0021	0.013 ± 0.018	-0.0345 ± 0.005	-0.0265 ± 0.005	-0.0045 ± 0.029	-0.0135 ± 0.022
KF3CT:uPA	0.0025 ± 0.016	-0.0055 ± 0.012	-0.003 ± 0.027	0.01 ± 0.024	-0.0055 ± 0.029	0.0025 ± 0.018	0.006 ± 0.016	0.0015 ± 0.0021	0.0165 ± 0.0035	0.01	-0.012 ± 0.037	0.0035 ± 0.015	-0.0155 ± 0.012	0.0065 ± 0.018	0.003 ± 0.016	0.0025 ± 0.0092	-0.0275 ± 0.029	-0.0215 ± 0.00071	-0.0035 ± 0.00071
MyoF:CD106/VCAM-1	-0.011 ± 0.035	-0.0065 ± 0.028	0.005 ± 0.0085	-0.0085 ± 0.005	-0.027 ± 0.033	-0.007 ± 0.023	-0.003 ± 0.0014	0.0115 ± 0.026	-0.002 ± 0.018	0.011	-0.0115 ± 0.015	0.014 ± 0.0014	-0.0185 ± 0.011	-0.013 ± 0.027	-0.0105 ± 0.015	-0.079 ± 0.03	-0.004 ± 0.0028	0.0085 ± 0.0021	0.0155 ± 0.016
MyoF:CXCL8/IL-8	0.022 ± 0.05	0.032 ± 0.068	0.03 ± 0.055	0.0015 ± 0.029	0.028 ± 0.011	0.0195 ± 0.0064	0.0335 ± 0.025	-0.003 ± 0.041	0.03 ± 0.0099	0.043	-0.01 ± 0.0071	0.0135 ± 0.023	0.03 ± 0.014	0.0105 ± 0.026	0.025 ± 0.011	0.038 ± 0.0028	0.007 ± 0.042	0.0425 ± 0.021	0.0665 ± 0.0064
MyoF:Collagen I	-0.0165 ± 0.011	-0.007 ± 0.0099	0.0065 ± 0.013	0.0045 ± 0.016	-0.0205 ± 0.0035	0.007 ± 0.0042	-0.015 ± 0.028	-0.0005 ± 0.013	0.007 ± 0.0085	0.047	-0.007 ± 0.0099	-0.0265 ± 0.015	-0.0435 ± 0.0035	-0.021 ± 0.0014	-0.014 ± 0.0057	-0.009 ± 0.035	-0.017 ± 0.023	-0.004 ± 0.0014	-0.0235 ± 0.0064
MyoF:Collagen III	-0.0115 ± 0.0021	-0.002 ± 0.013	0.026 ± 0.0028	0.019 ± 0.03	-0.016 ± 0.0014	0.0145 ± 0.0021	-0.0055 ± 0.03	-0.0045 ± 0.015	0.003 ± 0.017	0.006	-0.0005 ± 0.029	0.0045 ± 0.033	0.002 ± 0.013	-0.013 ± 0.014	-0.013 ± 0.017	-0.073 ± 0.05	0.02 ± 0.024	0.0265 ± 0.0064	0.0145 ± 0.0064

Reference: the supplement of paper PMC10331698
